Results published in patent US20140371244A1, “METHOD FOR TREATING PROSTATE CANCER BY USE OF PHARMACEUTICAL COMPOSITION CONTAINING A3 ADENOSINE RECEPTOR AGONIST” (priority 2009, published 2014).

Key:
ICR white mice = assay: Animal toxicity test, single oral dose; format: in vivo; conditions: mouse, in vivo, po
Protocol: In order to examine the toxicities of thio-Cl-IB-MECA and thio-IB-MECA, each of the compounds was administered orally to ICR white mice (n=10, 25 g) at a dose of 1500 mg/kg weight, and the behavioral change and state of the mice were observed.

[1] = system: prostate cancer cell line PC-3; assay: Anticancer activity in PC-3 tumor-transplanted nude mice; format: in vivo; conditions: 2 mg/kg orally every day for 35 days
Protocol: Based on the anticancer activity of thio-Cl-IB-MECA against prostate cancer cells, proven by the in vitro test, the anticancer activity of thio-Cl-IB-MECA was measured by an animal test. The prostate cancer cell line PC-3 was transplanted subcutaneously into nude mice, and when the tumor size reached 150-200 mm^3 after 8 days, the drug thio-Cl-IB-MECA (0.02, 0.2 and 2 mg/kg), thio-IB-MECA (2 mg/kg) or IB-MECA (2 mg/kg) was administered orally every day for 35 days. The tumor size was measured at intervals of 3-5 days. The tumor volume was measured using the following equation 3.
Tumor volume=abc×π/6 [Equation 3]
wherein a represents the longer diameter of the tumor, b represents the shorter diameter of the tumor, and c represents the height of the tumor.

[2] = system: human colorectal cancer HCT 116 cells; assay: Anticancer activity in nude mice transplanted with HCT 116 cells; format: in vivo, nude mice (Balb/c-nu/nu mice)
Protocol: HCT 116 cells were prepared at a concentration of 2×10^6 cells/200 μl (RPMI) and administered subcutaneously into the right frank of 6-week-old female nude mice (Balb/c-nu/nu mice). The tumor size was measured with calipers, and the tumor size reached about 100 mm^3, 20 mice having substantially the same tumor size were divided into a control group and three sample-treated groups. The three sample-treated group were administered orally with IB-MECA at doses of 0.02, 0.2 and 2 mg/kg, respectively, for 21 days. In the control group and the sample-treated groups, the bodyweight was measured once every week, and the tumor size was measured at intervals of 3-4 days. The tumor volume was measured using equation 3 above. In the equation, a represents the longer diameter of the tumor, b represents the shorter diameter of the tumor, and c represents the height of the tumor.
Anticancer activity was measured by an animal test in the same manner as Example 20, except that 6-week-old female nude mice were administered with Cl-IB-MECA in place of IB-MECA as a sample.
Anticancer activity was measured by an animal test in the same manner as Example 20, except that 6-week-old female nude mice were administered with thio-Cl-IB-MECA in place of IB-MECA as a sample.

[3] = system: human colorectal cancer HCT 116 cells; assay: SRB assay, growth of HCT 116 cells; format: cell-based; conditions: 72 hours
Protocol: In order to compare the inhibitory effect of thio-Cl-IB-MECA of the present invention on the inhibition of human colorectal cancer HCT 116 cells with the effects of other A3 adenosine receptor agonists, IB-MECA and Cl-IB-MECA, a sulforhodamine B (SRB) assay was performed.
Specifically, 10 μL of a solution of thio-Cl-IB-MECA in 10% dimethylsulfoxide (DMSO) was loaded in each well of a 96-well plate in triplicate at concentrations of 100, 50, 25 and 12.5 μM, thus making a test plate. Cells were diluted to a density of 5×10^4 cells/ml with 10% FBS-containing RPMI 1640 medium supplemented with antibiotics-antimycotics, and 190 μL of the cell suspension was added to each well so as to reach a total volume of 200 μL and was cultured in a 5% CO2 incubator at 37° C. for 3 days. At the same time, 190 μL of the same cell suspension was loaded into each of 16 wells or more of a fresh 96-well plate containing no sample (thio-Cl-IB-MECA) and was cultured in a 5% CO2 incubator at 37° C. for 30 minutes, thereby determining reference date. After the culture, 50 μL of 50% trichloroacetic acid (TCA) was added to each well, and the cells were fixed by culture at 4° C. for 1 hour. Then, the well plate was washed five times with tap water and dried. 100 μL of a 1% acetic acid solution containing […] sulforhodamine B (SRB) was added to each well to stain the cells, and the well plate was allowed to stand at room temperature for 1 hour. After the well plate has been washed five times with 1% acetic acid and sufficiently dried, 200 μL of 100 mM Tris-base was added to each well, and the bound staining liquid was dissolved and sufficiently shaken in a shaker. Then, the absorbance at 515 nm was measured using an ELISA microplate reader. Based on the measured absorbance, the cell viability of the test group relative to the control group was calculated using equation 2 above. Based on the viability at each concentration, the IC50 value of the test sample was calculated using TableCurve program.
In the cases of IB-MECA or Cl-IB-MECA, the viability of cancer cells was examined in the same manner as the case of thio-Cl-IB-MECA.

Row | IC50 ([3]; SRB) | SMILES | maximum tolerance dose (MTD) (ICR white mice) | survival and side effects up to 7 days after administration (ICR white mice; 1500 mg/kg) | tumor production inhibitory activity relative to the control group [1] | inhibition rate of tumor growth ([2]; 0.02 mg/kg orally for 21 days) | inhibition rate of tumor growth ([2]; 0.2 mg/kg orally for 21 days) | inhibition rate of tumor growth ([2]; 2 mg/kg orally for 21 days) | side effects (such as a change in bodyweight) during the test period ([2]; 0.02, 0.2 and 2 mg/kg orally for 21 days) | growth of HCT 116 cells ([3]; 100, 50, 25 and 12.5 μM)
1 | – | CNC(=O)[C@H]1S[C@@H](n2cnc3c(NCc4cccc(I)c4)ncnc32)[C@H](O)[C@@H]1O [thio-IB-MECA, N^6-(3-iodobenzyl)-4′-thioadenosine-5′-N-methyluronamide] | more than 1500 mg/kg | survived healthfully without particular side effects | about 53.6% | – | – | – | – | –
2 | 19.3 µM | CNC(=O)[C@H]1O[C@@H](n2cnc3c(NCc4cccc(I)c4)nc(Cl)nc32)[C@H](O)[C@@H]1O [Cl-IB-MECA] | – | – | – | 18.2% | 43.8% | 67.3% | survived healthfully without particular side effects | concentration-dependently inhibited the growth
